This is an account of results in patent US9475766B2, “Substituted aromatic sulfur compounds and methods of their use” (Cephalon, Inc., priority 2011, dated 2016).

Where only a bound is given, the exact number is not on record here.

Assay type in all cases: cell-based
Assay [1] concerns HT29 colon cancer cell line. Kind of assay: Cell survival and adhesion assay (luciferase), HT29. Particulars: HT-29, 5 hours, HT29 cells overlayed onto human mesothelial cell monolayers, read-out: relative reduction in Luciferase activity, HT29 10 μM. The method, then:
(§1) SU86 is a pancreatic cancer cell line. HT29 is a colon cancer cell line. BxPC3 is a pancreatic cell line. A2780 is an ovarian cancer cell line.
(§2) BxPc-3 and Su.86.86 pancreatic and HT-29 colon and A2780 ovarian cancer cell lines were purchased from ATCC and cultured in DMEM supplemented with 10% fetal bovine serum, glutamine, penicillin, and streptomycin. All cells were cultured at 37° C. in a humidified incubator in a 5% CO2 atmosphere. The cancer cell lines were transduced with a retrovirus containing pLuc-puro, a constitutive luciferase reporter and selected in […] media. Transient transfection of a full-length human c-FLIP construct in the vector pcDNA3 was performed as previously described. Scaife et al. Cancer Research 2002, 62: 6870-78.
(§3) Pancreatic cancer cell cultures (BxPc-3 and Su.86.86) and colon cancer (HT-29) and ovarian cancer (A2780) cells that were stably transfected with a firefly luciferase construct were transiently suspended with trypsin-PBS. 10^5 cells were overlayed onto confluent monolayers of human mesothelial cells in 96-well plates while simultaneously adding various concentrations of compounds of the invention or DMSO for 5 hours. The non-adherent cells were carefully washed away from the wells twice with 100 μl/well of blocking buffer (1% BSA in PBS) and twice again with ice-cold PBS. Adherent and surviving cells were detected by luciferase activity in a luminometer as follows. The cells were lysed in 0.1% TritonX-100, 25 mM Gly-Gly (7.8), MgSO4, 4 mM EGTA, 1 mM DTT. The total protein concentration was normalized with lysis buffer. 50 μl of cell lysate was added per well of a 96-well microtiter plate. 50 μl of luciferin substrate (Promega) was added per well and then the light output determined in a luminometer.

Assay [2] has as its system BxPC3 pancreatic cell line. In words: Cell survival and adhesion assay (luciferase), BxPC3. Conditions: BXPC-3, 5 hours, BxPC3 cells overlayed onto human mesothelial cell monolayers, read-out: relative reduction in Luciferase activity, BxPC3 10 μM. The method, then:
as §1, §2, §3

The test system of assay [3] is SU86 pancreatic cancer cell line (Su.86.86). Kind of assay: Cell survival and adhesion assay (luciferase), SU86. Particulars: 5 hours, SU86 cells overlayed onto human mesothelial cell monolayers, read-out: relative reduction in Luciferase activity, SU86 10 μM. The method, then: as §1, §2, §3
For assay [4], the system named is A2780 ovarian cancer cell line. Kind of assay: Cell survival and adhesion assay (luciferase), A2780. Conditions: 5 hours, A2780 cells overlayed onto human mesothelial cell monolayers, read-out: relative reduction in Luciferase activity, A2780 10 μM. The method, then: as §1, §2, §3

In the case of `CC(C)(C(=O)NCc1ccc(S(C)(=O)=O)cc1)c1ccc(S(=O)(=O)/C=C/C#N)cc1` [Example 27, 2-[4-((E)-2-Cyano-ethenesulfonyl)-phenyl]-N-(4-methanesulfonyl-benzyl)-isobutyramide], the inhibition at 10 µM in assay [1] was 10 to 50%; in assay [2], less than 10%; in assay [3] it was less than 10%.
As for `Cc1cnc(C(C)(C)c2ccc(S(=O)(=O)/C=C/C#N)cc2)o1` [Example 51, (E)-3-{4-[1-Methyl-1-(5-methyl-oxazol-2-yl)-ethyl]-benzenesulfonyl}-acrylonitrile], the inhibition at 10 µM is more than 85% in assay [1], more than 85% in assay [2] and 50 to 85% in assay [3].
As to `Cc1ccc2oc(C(C)(C)c3ccc(S(=O)(=O)/C=C/C#N)cc3)nc2c1` [Example 50, (E)-3-{4-[1-Methyl-1-(5-methyl-benzoxazol-2-yl)-ethyl]-benzenesulfonyl}-acrylonitrile], the inhibition at 10 µM in assay [1] is more than 85%; in assay [2] it was more than 85%; in assay [3] it was 50 to 85%.
As to `CC(C)(C(=O)N1CCCCC1)c1ccc(S(=O)(=O)/C=C/C#N)cc1` [Example 28, (E)-3-[4-(1,1-Dimethyl-2-oxo-2-piperidin-1-yl-ethyl)-benzenesulfonyl]-acrylonitrile], the inhibition at 10 µM in assay [1] was more than 85%; in assay [2], 50 to 85%; in assay [3], 10 to 50%.
As to `CC(C)(C)OC(=O)NCCNC(=O)C(C)(C)c1ccc(S(=O)(=O)/C=C/C#N)cc1` [Example 32, (2-{2-[4-((E)-2-Cyano-ethenesulfonyl)-phenyl]-2-methyl-propionylamino}-ethyl)-carbamic acid tert-butyl ester], the inhibition at 10 µM was 50 to 85% in assay [1], 10 to 50% in assay [2] and 10 to 50% in assay [3].
On to `CC(C)(C(=O)Nc1cccc(OCC(=O)O)c1)c1ccc(S(=O)(=O)/C=C/C#N)cc1` [Example 43, (3-{2-[4-((E)-2-Cyano-ethenesulfonyl)-phenyl]-2-methyl-propionylamino}-phenoxy)-acetic acid], for which the inhibition at 10 µM in assay [1], in assay [2] and in assay [3] was less than 10% each time.
For the compound `CC(C)(C)OC(=O)NCCCCCCNC(=O)C(C)(C)c1ccc(S(=O)(=O)/C=C/C#N)cc1` [Example 33, (6-{2-[4-((E)-2-Cyano-ethenesulfonyl)-phenyl]-2-methyl-propionylamino}-hexyl)-carbamic acid tert-butyl ester], the inhibition at 10 µM in assay [1] is 50 to 85%; in assay [2] it was 10 to 50%; in assay [3], less than 10%.
On the same counts, the results for `CC(C)(C(=O)NNC(=O)C1CCCCC1)c1ccc(S(=O)(=O)/C=C/C#N)cc1` [Example 52, Cyclohexanecarboxylic acid N′-{2-[4-((E)-2-cyano-ethenesulfonyl)-phenyl]-2-methyl-propionyl}-hydrazide] are 50 to 85%, less than 10% and 10 to 50%.
Take `CC(C)(C(=O)N[C@H](CO)c1ccccc1)c1ccc(S(=O)(=O)/C=C/C#N)cc1` [Example 29, 2-[4-((E)-2-Cyano-ethenesulfonyl)-phenyl]-N—((S)-2-hydroxy-1-phenyl-ethyl)-isobutyramide]: the inhibition at 10 µM in assay [1] is 50 to 85%; in assay [2], less than 10%; in assay [3], less than 10%.
As to `COCCOc1cccc(NC(=O)C(C)(C)c2ccc(S(=O)(=O)/C=C/C#N)cc2)c1` [Example 42, 2-[4-((E)-2-Cyano-ethenesulfonyl)-phenyl]-N-[3-(2-methoxy-ethoxy)-phenyl]-isobutyramide], the inhibition at 10 µM in assay [1] was more than 85%; in assay [2] it was 50 to 85%; in assay [3], 50 to 85%.
Turning to `COc1ccccc1CNC(=O)C(C)(C)c1ccc(S(=O)(=O)/C=C/C#N)cc1` [Example 45, 2-[4-((E)-2-Cyano-ethenesulfonyl)-phenyl]-N-(2-methoxy-benzyl)-isobutyramide], the inhibition at 10 µM in assay [1] is more than 85%; in assay [2] it was more than 85%; in assay [3], 50 to 85%.
On to `CC(C)(C(=O)NCc1ccccc1F)c1ccc(S(=O)(=O)/C=C/C#N)cc1` [Example 40, 2-[4-((E)-2-Cyano-ethenesulfonyl)-phenyl]-N-(2-fluoro-benzyl)-isobutyramide], for which the inhibition at 10 µM was more than 85% in assay [1], more than 85% in assay [2] and 50 to 85% in assay [3].
As to `COc1cccc(CNC(=O)C(C)(C)c2ccc(S(=O)(=O)/C=C/C#N)cc2)c1` [Example 44, 2-[4-((E)-2-Cyano-ethenesulfonyl)-phenyl]-N-(3-methoxy-benzyl)-isobutyramide], the values for the inhibition at 10 µM in assay [1], in assay [2] and in assay [3] were more than 85%, more than 85% and 50 to 85%, respectively.
`COCCOCc1ccc(NC(=O)C(C)(C)c2ccc(S(=O)(=O)/C=C/C#N)cc2)cc1` [Example 31, 2-[4-((E)-2-Cyano-ethenesulfonyl)-phenyl]-N-[4-(2-methoxy-ethoxymethyl)-phenyl]-isobutyramide]: the inhibition at 10 µM lay in the range of 50 to 85% in assay [1], 50 to 85% in assay [2] and 10 to 50% in assay [3].
For `CC(C)(C(=O)NCCc1ccccc1)c1ccc(S(=O)(=O)/C=C/C#N)cc1` [Example 24, 2-[4-((E)-2-Cyano-ethenesulfonyl)-phenyl]-N-phenethyl-isobutyramide], the inhibition at 10 µM in assay [4] is more than 85%; in assay [2], 50 to 85%; in assay [3] it was 50 to 85%.
As to `CC(C)(C(=O)N[C@H]1CCCCNC1=O)c1ccc(S(=O)(=O)/C=C/C#N)cc1` [Example 30, 2-[4-((E)-2-Cyano-ethenesulfonyl)-phenyl]-N—((S)-2-oxo-azepan-3-yl)-isobutyramide], the inhibition at 10 µM in assay [1] is 50 to 85%; in assay [2], less than 10%; in assay [3] it was less than 10%.
As for `CN(Cc1ccc(F)cc1)C(=O)C(C)(C)c1ccc(S(=O)(=O)/C=C/C#N)cc1` [Example 41, 2-[4-((E)-2-Cyano-ethenesulfonyl)-phenyl]-N-(4-fluoro-benzyl)-N-methyl-isobutyramide], the figures for the inhibition at 10 µM in assay [1], in assay [2] and in assay [3] were more than 85%, more than 85% and 50 to 85%, respectively.
For `COc1ccccc1CN(C)C(=O)C(C)(C)c1ccc(S(=O)(=O)/C=C/C#N)cc1` [Example 46, 2-[4-((E)-2-Cyano-ethenesulfonyl)-phenyl]-N-(2-methoxy-benzyl)-N-methyl-isobutyramide], the inhibition at 10 µM in assay [1] is more than 85%; in assay [2], more than 85%; in assay [3], 50 to 85%.
Take `CC(C)(c1ccc(S(=O)(=O)/C=C/C#N)cc1)c1nnc(C2CCCCC2)o1` [Example 53, (E)-3-{4-[1-(5-Cyclohexyl-[1,3,4]oxadiazol-2-yl)-1-methyl-ethyl]-benzenesulfonyl}-acrylonitrile]: the results for the inhibition at 10 µM in assay [1], in assay [2] and in assay [3] were more than 85%, more than 85% and 50 to 85%, respectively.
Regarding `CC(C)(c1ccc(S(=O)(=O)/C=C/C#N)cc1)c1nnc(Nc2ccccc2)o1` [Example 47, (E)-3-{4-[1-Methyl-1-(5-phenylamino-[1,3,4]oxadiazol-2-yl)-ethyl]-benzenesulfonyl}-acrylonitrile], the inhibition at 10 µM in assay [4] was in the range of 50 to 85%; in assay [2], 50 to 85%; in assay [3], 10 to 50%.
